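Test compounds were applied to cells in 96-well plates for 48 hours at 5 doses. Here, GI50 denotes the concentration required for 50% inhibition of growth. The concentration for full growth arrest is given as TGI.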
Assays:
Assay in all cases: NCI anticancer screen, dose series, 48 h
[1] = test system: 786-0 renal
[2] = test system: HCT-15 colon
[3] = test system: U251 CNS
[4] = test system: OVCAR-4 ovarian
[5] = test system: LOX IMVI melanoma
[6] = test system: UACC-257 melanoma
[7] = test system: KM12 colon
[8] = test system: NCI-H460 lung
[9] = test system: MOLT-4 leukemia
[10] = test system: T-47D breast
[11] = test system: SF-268 CNS
[12] = test system: OVCAR-3 ovarian
[13] = test system: SK-MEL-2 melanoma
[14] = test system: UO-31 renal
[15] = test system: MALME-3M melanoma
[16] = test system: A498 renal
[17] = test system: HCT-116 colon
[18] = test system: EKVX NSCLC
[19] = test system: TK-10 renal
[20] = test system: HCC-2998 colon
[21] = test system: NCI-H226 lung
[22] = test system: CCRF-CEM leukemia
[23] = test system: M14 melanoma
[24] = test system: RPMI-8226 leukemia
[25] = test system: HT29 colon
[26] = test system: SF-295 CNS
[27] = test system: COLO 205 colon
[28] = test system: MDA-MB-468 breast
[29] = test system: K-562 leukemia
[30] = test system: MDA-MB-435
[31] = test system: MDA-MB-231 breast
[32] = test system: NCI-H23 lung
[33] = test system: BT-549 breast
[34] = test system: NCI-H522 lung
[35] = test system: HS 578T breast
[36] = test system: SK-MEL-28 melanoma
[37] = test system: OVCAR-5 ovarian
[38] = test system: DU-145 prostate
[39] = test system: SW-620 colon
[40] = test system: HL-60(TB) leukemia
[41] = test system: PC-3 prostate
[42] = test system: ACHN renal
[43] = test system: CAKI-1 renal
[44] = test system: HOP-62 NSCLC
[45] = test system: SR leukemia
[46] = test system: SK-MEL-5 melanoma
[47] = test system: HOP-92 NSCLC
[48] = test system: SK-OV-3 ovarian
[49] = test system: OVCAR-8 ovarian
[50] = test system: SN12C renal
[51] = test system: UACC-62 melanoma
[52] = test system: IGROV1 ovarian
[53] = test system: SF-539 CNS
[54] = test system: RXF 393 renal
[55] = test system: NCI/ADR-RES ovarian
[56] = test system: A549 NSCLC
[57] = test system: MCF7 breast
[58] = test system: SNB-19 CNS

## COc1ccc(C(=O)/C=C/c2cccc(Cl)c2)cc1S(N)(=O)=O
[1]
  GI50: 1.57 µM
  TGI: 3.49 µM
[2]
  GI50: 1.14 µM
  TGI: 2.59 µM
[3]
  GI50: 1.36 µM
  TGI: 2.69 µM
[4]
  GI50: 3.58 µM
  TGI: 14.3 µM
[5]
  GI50: 1.3 µM
  TGI: 2.57 µM
[6]
  GI50: 5.53 µM
  TGI: 18.9 µM
[7]
  GI50: 1.61 µM
  TGI: 3.75 µM
[8]
  GI50: 3.34 µM
  TGI: 11.2 µM
[9]
  GI50: 2.38 µM
  TGI: 6.15 µM
[10]
  GI50: 2.14 µM
  TGI: 6.68 µM
[11]
  GI50: 3.27 µM
  TGI: 13 µM
[12]
  GI50: 1.55 µM
  TGI: 3.39 µM
[13]
  GI50: 12.9 µM
  TGI: 26.2 µM
[14]
  GI50: 1.29 µM
  TGI: 2.73 µM
[15]
  GI50: 3.56 µM
  TGI: 15.1 µM
[16]
  GI50: 16.3 µM
  TGI: 30.5 µM
[17]
  GI50: 1.21 µM
  TGI: 2.52 µM
[18]
  GI50: 4.16 µM
  TGI: 16.7 µM
[19]
  GI50: 2.49 µM
  TGI: 10.5 µM
[20]
  GI50: 1.6 µM
  TGI: 3.06 µM
[21]
  GI50: 2.83 µM
  TGI: 11.9 µM
[22]
  GI50: 3.11 µM
  TGI: 8.69 µM
[23]
  GI50: 2.13 µM
  TGI: 6.93 µM
[24]
  GI50: 2.28 µM
  TGI: 6.67 µM
[25]
  GI50: 1.7 µM
  TGI: 3.4 µM
[26]
  GI50: 2.24 µM
  TGI: 7.94 µM
[27]
  GI50: 1.81 µM
  TGI: 3.41 µM
[28]
  GI50: 1.41 µM
  TGI: 2.93 µM
[29]
  GI50: 2.13 µM
  TGI: > 100 µM
[30]
  GI50: 3.2 µM
  TGI: 12.1 µM
[31]
  GI50: 2.26 µM
  TGI: 5.9 µM
[32]
  GI50: 1.78 µM
  TGI: 3.5 µM
[33]
  GI50: 1.65 µM
  TGI: 4.18 µM
[34]
  GI50: 1.63 µM
  TGI: 3.22 µM
[35]
  GI50: 10.7 µM
  TGI: 50.9 µM
[36]
  GI50: 2.78 µM
  TGI: 9.4 µM
[37]
  GI50: 1.87 µM
  TGI: 4.76 µM
[38]
  GI50: 3.52 µM
  TGI: 12.2 µM
[39]
  GI50: 1.68 µM
  TGI: 3.53 µM
[40]
  GI50: 1.9 µM
  TGI: 5.72 µM
[41]
  GI50: 2.23 µM
  TGI: 6.18 µM
[42]
  GI50: 1.75 µM
  TGI: 3.23 µM
[43]
  GI50: 2.4 µM
  TGI: 9.07 µM
[44]
  GI50: 2.2 µM
  TGI: 6.43 µM
[45]
  GI50: 0.848 µM
  TGI: 4.9 µM
[46]
  GI50: 3.18 µM
  TGI: 12.6 µM
[47]
  GI50: 2.28 µM
  TGI: 18.6 µM
[48]
  GI50: 6.24 µM
  TGI: 19.1 µM
[49]
  GI50: 2.81 µM
  TGI: 11.7 µM
[50]
  GI50: 1.56 µM
  TGI: 3.64 µM
[51]
  GI50: 1.98 µM
  TGI: 5.51 µM
[52]
  GI50: 2.48 µM
  TGI: 9.06 µM
[53]
  GI50: 1.75 µM
  TGI: 3.78 µM
[54]
  GI50: 1.55 µM
  TGI: 3.08 µM
[55]
  GI50: 2.29 µM
  TGI: 6.48 µM
[56]
  GI50: 2.5 µM
  TGI: 10.2 µM
[57]
  GI50: 1.97 µM
  TGI: 6.99 µM
[58]
  GI50: 3.13 µM
  TGI: 12.4 µM

## O=C(Nc1ccc(F)cc1)Nc1nc2ccc([N+](=O)[O-])cc2s1
[1]
  GI50: 3.07 µM
  TGI: 11.5 µM
[2]
  GI50: 2.73 µM
  TGI: 10.2 µM
[3]
  GI50: 3.3 µM
  TGI: 11.3 µM
[4]
  GI50: 3.3 µM
  TGI: 13.2 µM
[5]
  GI50: 3.58 µM
  TGI: 12.8 µM
[6]
  GI50: 2.27 µM
  TGI: 6.48 µM
[7]
  GI50: 3.05 µM
  TGI: 10.5 µM
[8]
  GI50: 2.89 µM
  TGI: 9.77 µM
[9]
  GI50: 2.41 µM
  TGI: 6.77 µM
[10]
  GI50: 2.58 µM
  TGI: 7.68 µM
[11]
  GI50: 2.78 µM
  TGI: 11.3 µM
[12]
  GI50: 3.45 µM
  TGI: 12.1 µM
[15]
  GI50: 1.96 µM
  TGI: 5.38 µM
[16]
  GI50: 2.26 µM
  TGI: 6.46 µM
[17]
  GI50: 2.92 µM
  TGI: 10.4 µM
[18]
  GI50: 2.9 µM
  TGI: 10.3 µM
[19]
  GI50: 3.29 µM
  TGI: 12 µM
[20]
  GI50: 3.56 µM
  TGI: 12.5 µM
[21]
  GI50: 3.34 µM
  TGI: 11.7 µM
[22]
  GI50: 2.61 µM
  TGI: 10.5 µM
[23]
  GI50: 2.7 µM
  TGI: 10.7 µM
[24]
  GI50: 1.92 µM
  TGI: 5.04 µM
[25]
  GI50: 3.42 µM
  TGI: 11 µM
[26]
  GI50: 2.04 µM
  TGI: 5.27 µM
[27]
  GI50: 2.1 µM
  TGI: 3.97 µM
[28]
  GI50: 2.36 µM
  TGI: 6.75 µM
[29]
  GI50: 3.03 µM
  TGI: 10.4 µM
[30]
  GI50: 3.18 µM
  TGI: 11.3 µM
[32]
  GI50: 2.45 µM
  TGI: 6.21 µM
[33]
  GI50: 1.95 µM
  TGI: 5.03 µM
[34]
  GI50: 2.37 µM
  TGI: 7.56 µM
[35]
  GI50: 2.6 µM
  TGI: 8.28 µM
[36]
  GI50: 3 µM
  TGI: 11 µM
[37]
  GI50: 3.45 µM
  TGI: 12.9 µM
[38]
  GI50: 3.94 µM
  TGI: 14 µM
[39]
  GI50: 3.41 µM
  TGI: 12.7 µM
[40]
  GI50: 1.97 µM
  TGI: 4.67 µM
[41]
  GI50: 3.48 µM
  TGI: 12.3 µM
[42]
  GI50: 3.09 µM
  TGI: 9.82 µM
[43]
  GI50: 2.96 µM
  TGI: 10.7 µM
[44]
  GI50: 3.19 µM
  TGI: 11.8 µM
[45]
  GI50: 1.86 µM
  TGI: 5.02 µM
[46]
  GI50: 1.73 µM
  TGI: 3.3 µM
[47]
  GI50: 2.59 µM
  TGI: 7.13 µM
[48]
  GI50: 2.14 µM
  TGI: 6.98 µM
[49]
  GI50: 3.42 µM
  TGI: 11.9 µM
[50]
  GI50: 2.59 µM
  TGI: 8.12 µM
[51]
  GI50: 2.62 µM
  TGI: 9.22 µM
[52]
  GI50: 3.93 µM
  TGI: 14.5 µM
[53]
  GI50: 2.59 µM
  TGI: 6.91 µM
[54]
  GI50: 2.65 µM
  TGI: 8.72 µM
[55]
  GI50: 2.85 µM
  TGI: 9.36 µM
[56]
  GI50: 2.75 µM
  TGI: 11.6 µM
[57]
  GI50: 2.51 µM
  TGI: 8.65 µM
[58]
  GI50: 3.21 µM
  TGI: 12.2 µM

Source: PubChem BioAssay (NCI)
